Laboratory results as given in the supplement of paper PMC10307832.

Legend:
Assay in all cases: relative viability (nuclei count vs DMSO), 5 days (fraction); higher = more cells survive
COR-L 105 = test system: COR-L 105
How it was run: (§1)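 After 5 days of treatment, lung cancer cells in 1536-well plates were fixed and stained in a single step (final 0.05% Triton X-100, 1% formaldehyde, 1 ug/ml Hoechst) and their nuclei counted on 4× images. Treatment had been applied by pin tool the day after seeding as one drug alone or as a fixed anchor-drug dose with five library-drug doses (not always all listed) in √10 steps. Relative viability is the nuclei count of treated wells divided by that of vehicle wells, and values are medians of duplicate plates.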

COR-L23 = test system: COR-L23
How it was run: as §1

HARA = test system: HARA
How it was run: as §1

HCC-15 = test system: HCC-15
How it was run: as §1

HOP-62 = test system: HOP-62
How it was run: as §1

NCI-H1355 = test system: NCI-H1355
How it was run: as §1

NCI-H1395 = test system: NCI-H1395
How it was run: as §1

NCI-H1734 = test system: NCI-H1734
How it was run: as §1

NCI-H1755 = test system: NCI-H1755
How it was run: as §1

NCI-H1792 = test system: NCI-H1792
How it was run: as §1

NCI-H1793 = test system: NCI-H1793
How it was run: as §1

NCI-H1993 = test system: NCI-H1993
How it was run: as §1

NCI-H2009 = test system: NCI-H2009
How it was run: as §1

NCI-H2170 = test system: NCI-H2170
How it was run: as §1

NCI-H2228 = test system: NCI-H2228
How it was run: as §1

NCI-H2347 = test system: NCI-H2347
How it was run: as §1

NCI-H358 = test system: NCI-H358
How it was run: as §1

NCI-H522 = test system: NCI-H522
How it was run: as §1

NCI-H647 = test system: NCI-H647
How it was run: as §1

NCI-H838 = test system: NCI-H838
How it was run: as §1

SK-MES-1 = test system: SK-MES-1
How it was run: as §1

UMC-11 = test system: UMC-11
How it was run: as §1

## Nc1ccn([C@@H]2O[C@H](CO)[C@@H](O)[C@@H]2O)c(=O)n1 [Cytarabine] + COc1cccc2cc(-c3nc([C@H]4CC[C@H](C(=O)O)CC4)n4ncnc(N)c34)[nH]c12 [OSI-027] (partner 0.5 µM)
COR-L 105; first compound 0.005 µM
  relative viability: 0.601
COR-L 105; first compound 0.01581 µM
  relative viability: 0.587
COR-L 105; first compound 0.05 µM
  relative viability: 0.586
COR-L 105; first compound 0.1581 µM
  relative viability: 0.354
COR-L 105; first compound 0.5 µM
  relative viability: 0.224
COR-L23; first compound 0.005 µM
  relative viability: 0.396
COR-L23; first compound 0.01581 µM
  relative viability: 0.546
COR-L23; first compound 0.05 µM
  relative viability: 0.546
COR-L23; first compound 0.1581 µM
  relative viability: 0.16
COR-L23; first compound 0.5 µM
  relative viability: 0.116
HARA; first compound 0.005 µM
  relative viability: 0.438
HARA; first compound 0.01581 µM
  relative viability: 0.236
HARA; first compound 0.05 µM
  relative viability: 0.149
HARA; first compound 0.1581 µM
  relative viability: 0.107
HARA; first compound 0.5 µM
  relative viability: 0.101
HCC-15; first compound 0.005 µM
  relative viability: 0.597
HCC-15; first compound 0.01581 µM
  relative viability: 0.67
HCC-15; first compound 0.05 µM
  relative viability: 0.669
HCC-15; first compound 0.1581 µM
  relative viability: 0.56
HCC-15; first compound 0.5 µM
  relative viability: 0.412
HOP-62; first compound 0.005 µM
  relative viability: 0.554
HOP-62; first compound 0.01581 µM
  relative viability: 0.474
HOP-62; first compound 0.05 µM
  relative viability: 0.458
HOP-62; first compound 0.1581 µM
  relative viability: 0.141
HOP-62; first compound 0.5 µM
  relative viability: 0.12
NCI-H1355; first compound 0.005 µM
  relative viability: 0.41
NCI-H1355; first compound 0.01581 µM
  relative viability: 0.402
NCI-H1355; first compound 0.05 µM
  relative viability: 0.31
NCI-H1355; first compound 0.1581 µM
  relative viability: 0.2
NCI-H1355; first compound 0.5 µM
  relative viability: 0.21
NCI-H1395; first compound 0.005 µM
  relative viability: 0.592
NCI-H1395; first compound 0.01581 µM
  relative viability: 0.484
NCI-H1395; first compound 0.05 µM
  relative viability: 0.369
NCI-H1395; first compound 0.1581 µM
  relative viability: 0.349
NCI-H1395; first compound 0.5 µM
  relative viability: 0.328
NCI-H1734; first compound 0.005 µM
  relative viability: 0.355
NCI-H1734; first compound 0.01581 µM
  relative viability: 0.285
NCI-H1734; first compound 0.05 µM
  relative viability: 0.222
NCI-H1734; first compound 0.1581 µM
  relative viability: 0.133
NCI-H1734; first compound 0.5 µM
  relative viability: 0.13
NCI-H1755; first compound 0.005 µM
  relative viability: 0.574
NCI-H1755; first compound 0.01581 µM
  relative viability: 0.578
NCI-H1755; first compound 0.05 µM
  relative viability: 0.561
NCI-H1755; first compound 0.1581 µM
  relative viability: 0.318
NCI-H1755; first compound 0.5 µM
  relative viability: 0.309
NCI-H1792; first compound 0.005 µM
  relative viability: 0.757
NCI-H1792; first compound 0.01581 µM
  relative viability: 0.664
NCI-H1792; first compound 0.05 µM
  relative viability: 0.738
NCI-H1792; first compound 0.1581 µM
  relative viability: 0.615
NCI-H1792; first compound 0.5 µM
  relative viability: 0.427
NCI-H1793; first compound 0.005 µM
  relative viability: 0.296
NCI-H1793; first compound 0.01581 µM
  relative viability: 0.285
NCI-H1793; first compound 0.05 µM
  relative viability: 0.245
NCI-H1793; first compound 0.1581 µM
  relative viability: 0.198
NCI-H1793; first compound 0.5 µM
  relative viability: 0.197
NCI-H1993; first compound 0.005 µM
  relative viability: 0.599
NCI-H1993; first compound 0.01581 µM
  relative viability: 0.56
NCI-H1993; first compound 0.05 µM
  relative viability: 0.529
NCI-H1993; first compound 0.1581 µM
  relative viability: 0.484
NCI-H1993; first compound 0.5 µM
  relative viability: 0.498
NCI-H2009; first compound 0.005 µM
  relative viability: 0.656
NCI-H2009; first compound 0.01581 µM
  relative viability: 0.642
NCI-H2009; first compound 0.05 µM
  relative viability: 0.621
NCI-H2009; first compound 0.1581 µM
  relative viability: 0.454
NCI-H2009; first compound 0.5 µM
  relative viability: 0.29
NCI-H2170; first compound 0.005 µM
  relative viability: 0.543
NCI-H2170; first compound 0.01581 µM
  relative viability: 0.513
NCI-H2170; first compound 0.05 µM
  relative viability: 0.387
NCI-H2170; first compound 0.1581 µM
  relative viability: 0.303
NCI-H2170; first compound 0.5 µM
  relative viability: 0.208
NCI-H2228; first compound 0.005 µM
  relative viability: 0.404
NCI-H2228; first compound 0.01581 µM
  relative viability: 0.209
NCI-H2228; first compound 0.05 µM
  relative viability: 0.244
NCI-H2228; first compound 0.1581 µM
  relative viability: 0.097
NCI-H2228; first compound 0.5 µM
  relative viability: 0.0984
NCI-H2347; first compound 0.005 µM
  relative viability: 0.401
NCI-H2347; first compound 0.01581 µM
  relative viability: 0.282
NCI-H2347; first compound 0.05 µM
  relative viability: 0.336
NCI-H2347; first compound 0.1581 µM
  relative viability: 0.268
NCI-H2347; first compound 0.5 µM
  relative viability: 0.327
NCI-H358; first compound 0.005 µM
  relative viability: 0.608
NCI-H358; first compound 0.01581 µM
  relative viability: 0.631
NCI-H358; first compound 0.05 µM
  relative viability: 0.35
NCI-H358; first compound 0.1581 µM
  relative viability: 0.104
NCI-H358; first compound 0.5 µM
  relative viability: 0.091
NCI-H522; first compound 0.005 µM
  relative viability: 0.717
NCI-H522; first compound 0.01581 µM
  relative viability: 0.599
NCI-H522; first compound 0.05 µM
  relative viability: 0.395
NCI-H522; first compound 0.1581 µM
  relative viability: 0.48
NCI-H522; first compound 0.5 µM
  relative viability: 0.539
NCI-H647; first compound 0.005 µM
  relative viability: 0.479
NCI-H647; first compound 0.01581 µM
  relative viability: 0.33
NCI-H647; first compound 0.05 µM
  relative viability: 0.271
NCI-H647; first compound 0.1581 µM
  relative viability: 0.105
NCI-H647; first compound 0.5 µM
  relative viability: 0.0867
NCI-H838; first compound 0.005 µM
  relative viability: 0.397
NCI-H838; first compound 0.01581 µM
  relative viability: 0.379
NCI-H838; first compound 0.05 µM
  relative viability: 0.4
NCI-H838; first compound 0.1581 µM
  relative viability: 0.273
NCI-H838; first compound 0.5 µM
  relative viability: 0.185
SK-MES-1; first compound 0.005 µM
  relative viability: 0.343
SK-MES-1; first compound 0.01581 µM
  relative viability: 0.282
SK-MES-1; first compound 0.05 µM
  relative viability: 0.18
SK-MES-1; first compound 0.1581 µM
  relative viability: 0.297
SK-MES-1; first compound 0.5 µM
  relative viability: 0.267
UMC-11; first compound 0.005 µM
  relative viability: 0.314
UMC-11; first compound 0.01581 µM
  relative viability: 0.418
UMC-11; first compound 0.05 µM
  relative viability: 0.386
UMC-11; first compound 0.1581 µM
  relative viability: 0.226
UMC-11; first compound 0.5 µM
  relative viability: 0.226
